Converted amounts (≈) assume the structure as drawn. Like-named read-outs stand apart in the source and are kept apart here.
Tests used:
[1] = tested on: TNF-α; assay: TNF-α-induced NF-κB activation luciferase reporter counterscreen; format: cell-based; details: Homo sapiens
[2] = tested on: NF-κB activation via doxorubicin-induced pathway; assay: NF-κB selectivity assay, HEK 293-T cells, doxorubicin induction; format: cell-based, human
[3] = tested on: NF-κB activation via PMA/ionomycin; assay: NF-κB selectivity assay, HEK 293-T cells, PMA/ionomycin induction; format: cell-based, human
[4] = Aqueous kinetic solubility; format: physicochemical; details: aqueous solution, pH 6.2
[5] = Plasma protein binding, human plasma; format: in vitro ADME
[6] = Plasma protein binding, mouse plasma; format: in vitro ADME
[7] = Plasma stability, human plasma; format: in vitro ADME; details: Plasma/PBS, compound at 1 μM, 3 h
[8] = Plasma stability, mouse plasma; format: in vitro ADME; details: Plasma/PBS, compound at 1 μM, 3 h
[9] = Metabolic stability in human hepatic microsomes; format: in vitro ADME; details: percent remaining at 1 h
[10] = Metabolic stability in mouse hepatic microsomes; format: in vitro ADME; details: percent remaining at 1 h
[11] = biological target: T1, CFLT3 (Fms-like tyrosine kinase) (Homo sapiens, UniProt P36888); assay: Ambit KinomeScreen, FLT3; details: 10 μM
T1 sequence (P36888 27-993): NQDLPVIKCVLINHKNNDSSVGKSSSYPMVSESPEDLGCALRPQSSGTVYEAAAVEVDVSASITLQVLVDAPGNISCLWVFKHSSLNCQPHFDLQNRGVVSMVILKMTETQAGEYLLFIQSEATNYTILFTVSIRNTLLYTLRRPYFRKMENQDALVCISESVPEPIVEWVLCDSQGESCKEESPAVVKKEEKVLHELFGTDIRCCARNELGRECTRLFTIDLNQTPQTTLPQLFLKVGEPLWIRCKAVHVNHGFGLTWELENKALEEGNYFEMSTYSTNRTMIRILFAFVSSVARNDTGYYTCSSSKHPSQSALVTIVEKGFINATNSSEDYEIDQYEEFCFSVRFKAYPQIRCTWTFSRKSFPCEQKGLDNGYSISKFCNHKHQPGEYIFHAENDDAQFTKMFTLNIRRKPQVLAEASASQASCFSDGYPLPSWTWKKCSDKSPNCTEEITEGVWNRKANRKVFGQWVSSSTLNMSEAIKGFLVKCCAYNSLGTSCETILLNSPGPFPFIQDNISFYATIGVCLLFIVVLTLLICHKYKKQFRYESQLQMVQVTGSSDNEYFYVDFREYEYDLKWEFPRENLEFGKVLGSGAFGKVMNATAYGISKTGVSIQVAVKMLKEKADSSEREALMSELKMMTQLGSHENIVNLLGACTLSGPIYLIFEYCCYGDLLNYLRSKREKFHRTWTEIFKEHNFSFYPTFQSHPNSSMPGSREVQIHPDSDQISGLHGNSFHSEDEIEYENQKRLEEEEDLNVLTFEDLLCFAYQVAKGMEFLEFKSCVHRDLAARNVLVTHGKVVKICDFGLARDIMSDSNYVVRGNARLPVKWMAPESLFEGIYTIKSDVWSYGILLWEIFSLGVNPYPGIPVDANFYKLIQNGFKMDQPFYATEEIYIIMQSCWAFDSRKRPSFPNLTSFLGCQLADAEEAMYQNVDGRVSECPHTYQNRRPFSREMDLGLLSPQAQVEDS

[12] = tested on: 443 kinases; assay: Ambit KinomeScreen panel; details: 10 μM
[13] = biological target: RIOK2 (right open reading frame) (Homo sapiens, UniProt Q9BVS4); assay: Ambit KinomeScreen, RIOK2; details: 10 μM
RIOK2 (right open reading frame), sequence (Q9BVS4 whole entry, species assumed): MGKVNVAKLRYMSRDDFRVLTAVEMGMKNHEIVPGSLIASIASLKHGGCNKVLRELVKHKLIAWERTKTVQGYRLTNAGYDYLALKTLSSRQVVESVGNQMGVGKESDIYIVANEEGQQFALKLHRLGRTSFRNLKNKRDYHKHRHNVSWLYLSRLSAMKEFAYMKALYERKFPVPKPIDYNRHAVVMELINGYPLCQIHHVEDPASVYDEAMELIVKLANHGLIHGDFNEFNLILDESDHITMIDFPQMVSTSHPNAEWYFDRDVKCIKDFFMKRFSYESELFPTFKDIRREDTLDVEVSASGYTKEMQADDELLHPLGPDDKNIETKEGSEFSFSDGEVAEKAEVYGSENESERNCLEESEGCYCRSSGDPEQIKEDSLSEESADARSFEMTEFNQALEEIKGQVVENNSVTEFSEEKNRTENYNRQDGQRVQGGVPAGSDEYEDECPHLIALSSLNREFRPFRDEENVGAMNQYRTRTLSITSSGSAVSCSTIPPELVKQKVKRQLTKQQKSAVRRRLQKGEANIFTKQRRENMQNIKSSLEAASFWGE

[14] = tested on: NCI 60 human tumor cell line
[15] = read-out: TNF-α (NOD1-dependent) IC50

| SMILES | IC50 [1, 15] [µM] | IC50 ([1]; read-out: TNF-α IC50) [µM] | further results |
| --- | --- | --- | --- |
| Cc1ccc(S(=O)(=O)n2c(N)nc3ccccc32)cc1 [1c] | > 20 |  | inhibition of NF-κB activation via doxorubicin-induced pathway [2]: did not inhibit; inhibition of NF-κB activation via PMA/ionomycin [3]: did not inhibit; solubility at 18 h [4]: 2 µg/mL (≈ 6.96 µM); plasma protein binding ([5]; 1 μM): 97.5 % bound; plasma protein binding ([5]; 10 μM): 97.7 % bound; plasma protein binding ([6]; 1 μM): 95.0 % bound; plasma protein binding ([6]; 10 μM): 95.5 % bound; plasma stability [7]: 100/100 % remaining; plasma stability [8]: 100/100 % remaining; microsome stability [9]: 41.8 % remaining; microsome stability [10]: 0.8 % remaining; Inhibitory activity (reported as % control), CFLT3 [11]: 27 % C; activity against 443 kinases [12]: little activity; Inhibitory activity (reported as % control), RIOK2 [13]: 6 % C; cytotoxicity in NCI 60 screen [14]: noncytotoxic |
| Nc1nc2ccccc2n1S(=O)(=O)c1ccccc1 [4c] | > 20 |  |  |
| Cc1ccc(S(=O)(=O)n2cnc3ccccc32)cc1 [6c] | > 20 |  |  |
| CC(=O)c1ccc(N2CCN(S(=O)(=O)c3ccc4c(c3)CC(C)N4C(=O)C3CC3)CC2)cc1 (stereo not shown) [7a] |  | > 20 |  |
| Cc1ccc(S(=O)(=O)n2c(S)nc3ccc(C)cc32)cc1 [8c] | > 20 |  |  |
| Cc1ccc(S(=O)(=O)n2c(N)nc3cc(C)c(C)cc32)cc1 [9c] | > 20 |  |  |
| Nc1nc2ccccc2n1Cc1ccc(Cl)cc1 [10c] | > 20 |  |  |
| Nc1nc2ccccc2n1CCC(=O)c1ccc(Cl)cc1 [13c] | > 20 |  |  |
| COc1ccc(C(=O)Cn2c(N)nc3ccccc32)cc1 [14c] | > 20 |  |  |
| Nc1nc2ccccc2n1C(=O)Cc1ccccc1 [15c] | > 20 |  |  |
| O=C(C1CC1)N1CCc2cc(S(=O)(=O)N3CCN(c4ccc(Cl)cc4)CC3)ccc21 [18a] |  | > 20 |  |
| N#Cc1ccc(N2CCN(S(=O)(=O)c3ccc4c(c3)CCN4C(=O)C3CC3)CC2)cc1 [19a] |  | > 20 |  |
| CC(=O)c1ccc(N2CCN(S(=O)(=O)c3ccc4c(c3)CCN4C(=O)C3CC3)CC2)cc1 [20a] |  | > 20 |  |
| O=C(C1CC1)N1CCc2cc(S(=O)(=O)N3CCN(c4ccc([N+](=O)[O-])cc4)CC3)ccc21 [21a] |  | > 20 |  |
| CCC(=O)N1CCc2cc(S(=O)(=O)N3CCN(c4ccc(C(C)=O)cc4)CC3)ccc21 [22a] |  | > 20 |  |
| CCC(=O)N1CCc2cc(S(=O)(=O)N3CCN(c4ccc([N+](=O)[O-])cc4)CC3)ccc21 [23a] |  | > 20 |  |
| CC(=O)c1ccc(N2CCN(S(=O)(=O)c3ccc4c(c3)CCN4C(C)=O)CC2)cc1 [25a] |  | > 20 |  |
| CC(=O)N1CCc2cc(S(=O)(=O)N3CCN(c4ccc([N+](=O)[O-])cc4)CC3)ccc21 [26a] |  | > 20 |  |
| CC(=O)N1CCc2cc(S(=O)(=O)N3CCN(c4ccc(Cl)cc4)CC3)ccc21 [27a] |  | > 20 |  |
